From ChEMBL document CHEMBL1201862, “PubChem BioAssay data set” (2004)
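Method: 48-hour compound exposure of cells in 96-well plates, five concentrations, linear interpolation of endpoints. GI50 marks 50% less growth.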 Activity calls are given as the source filed them. Rule as the data show it: active = GI50 up to about 1.1 µM and inactive = higher. Where a SMILES comes first, the peptide text is derived from it. [ ]: non-standard residue; d: D form. The star is where a group is joined. Phe(4-NO2) = N[CH](Cc1ccc([N+](=O)[O-])cc1)C(=O)O; Boc = CC(C)(C)OC(=O)*

Legend:
Experiment in all cases: NCI-60 cell line screen, 48 h
[1] = tested on: LOX IMVI
[2] = tested on: M14
[3] = tested on: TK-10
[4] = tested on: HT-29
[5] = tested on: OVCAR-8
[6] = tested on: UACC-257
[7] = tested on: OVCAR-4
[8] = tested on: NCI-H23
[9] = tested on: SR
[10] = tested on: SK-MEL-28
[11] = tested on: OVCAR-3
[12] = tested on: SK-MEL-5
[13] = tested on: K562
[14] = tested on: COLO 205
[15] = tested on: A549
[16] = tested on: KM12
[17] = tested on: NCI-H522
[18] = tested on: RXF 393

Measured: GI50

CCCCCCCCOCC(O)COC (centres undefined)
inactive: [1] > 100 µM | [2] > 100 µM | [3] > 100 µM | [4] > 100 µM | [5] > 100 µM | [6] 69.7 µM | [7] > 100 µM | [8] > 100 µM | [9] > 100 µM | [10] > 100 µM | [11] 94.6 µM | [12] > 100 µM | [13] 63.8 µM | [14] > 100 µM | [15] > 100 µM

COc1cc2cnc3c4cc(OC(C)C)c(OC)cc4ccc3c2cc1OC
inactive: [2] > 100 µM | [3] > 100 µM | [4] > 100 µM | [5] > 100 µM | [6] > 100 µM | [7] > 100 µM | [16] > 100 µM | [8] > 100 µM | [17] > 100 µM | [10] > 100 µM | [11] > 100 µM | [12] > 100 µM | [13] > 100 µM | [14] > 100 µM | [15] > 100 µM

O=C(/C(=C/c1ccc(Cl)cc1)c1ccccc1)c1ccccc1
inactive: [1] 15.4 µM | [2] 16.3 µM | [3] 25.4 µM | [4] 18 µM | [5] 20.3 µM | [6] 13.6 µM | [7] 18 µM | [16] 16.9 µM | [8] 17.5 µM | [9] 19.9 µM | [17] 14.2 µM | [10] 16.9 µM | [13] 27.4 µM | [14] 18.8 µM

CC(=O)N1[C@H](C(=O)O)CS[C@H]1c1ccc(F)cc1
inactive: [1] > 100 µM | [2] > 100 µM | [3] > 100 µM | [4] > 100 µM | [5] > 100 µM | [6] > 100 µM | [18] > 100 µM | [7] > 100 µM | [8] > 100 µM | [9] > 100 µM | [10] > 100 µM | [11] > 100 µM | [12] > 100 µM | [13] > 100 µM | [14] > 100 µM | [15] > 100 µM

CC1(c2cccc(N)c2)C2C(=O)NC(=O)C1C(=O)NC2=O (centres undefined)
inactive: [1] 28.1 µM | [2] 36.7 µM | [3] 50.9 µM | [4] 29.4 µM | [5] 35.9 µM | [6] 37.9 µM | [18] 26.1 µM | [7] 36.7 µM | [16] 23.6 µM | [8] 22.1 µM | [17] 19.7 µM | [10] 38.6 µM | [11] 21.7 µM | [12] 18.5 µM | [13] 24.2 µM | [14] 23.7 µM | [15] 33.9 µM

O=C1OC(=O)C23CSCC12C1C=CC3O1 (centres undefined)
inactive: [1] > 100 µM | [2] > 100 µM | [3] > 100 µM | [4] > 100 µM | [5] > 100 µM | [6] > 100 µM | [18] > 100 µM | [16] > 100 µM | [8] > 100 µM | [17] > 100 µM | [10] > 100 µM | [11] > 100 µM | [12] > 100 µM | [13] > 100 µM | [14] > 100 µM | [15] > 100 µM

CCC1(C(=O)OC)CCc2c(OC)ccc(OC)c2C1=O (centres undefined)
inactive: [1] > 100 µM | [2] > 100 µM | [3] > 100 µM | [4] > 100 µM | [5] > 100 µM | [6] > 100 µM | [7] > 100 µM | [16] > 100 µM | [8] > 100 µM | [17] > 100 µM | [10] > 100 µM | [11] > 100 µM | [12] > 100 µM | [13] > 100 µM | [14] > 100 µM | [15] > 100 µM

C/C(CCn1[nH]c(=O)ccc1=O)=N\NC(=O)C(N)=O
inactive: [1] > 100 µM | [2] > 100 µM | [3] > 100 µM | [4] > 100 µM | [5] > 100 µM | [6] > 100 µM | [18] > 100 µM | [7] > 100 µM | [16] > 100 µM | [8] > 100 µM | [17] > 100 µM | [10] > 100 µM | [11] > 100 µM | [12] > 100 µM | [13] > 100 µM | [14] > 100 µM | [15] > 100 µM

CCOC(=O)c1cn(Cc2ccccc2)c(=O)n1Cc1ccccc1
inactive: [1] > 100 µM | [2] > 100 µM | [3] > 100 µM | [4] > 100 µM | [5] > 100 µM | [6] > 100 µM | [18] > 100 µM | [7] > 100 µM | [16] > 100 µM | [8] > 100 µM | [17] > 100 µM | [10] > 100 µM | [11] > 100 µM | [12] > 100 µM | [13] 52 µM | [14] > 100 µM | [15] 75 µM

O=C(O)C1C2CC3CC2CC31 (centres undefined)
inactive: [1] > 100 µM | [2] > 100 µM | [3] > 100 µM | [5] > 100 µM | [6] > 100 µM | [18] > 100 µM | [7] > 100 µM | [16] > 100 µM | [8] > 100 µM | [17] > 100 µM | [10] > 100 µM | [11] > 100 µM | [12] > 100 µM | [13] > 100 µM | [14] > 100 µM | [15] > 100 µM

Clc1ccccc1C1N2CCCCC2[C@@H]2c3[nH]c4ccccc4c3CCN12 (some centres undefined)
inactive: [2] 17.3 µM | [3] 23.8 µM | [4] 17.1 µM | [5] 19.8 µM | [6] 18.7 µM | [18] 22 µM | [7] 19.1 µM | [8] 23.6 µM | [10] 18.5 µM | [11] 16.2 µM | [12] > 10 µM | [13] 14.3 µM | [14] 19.3 µM | [15] > 10 µM

CCOC(=O)C[C@@]12CCCNC1(C)CCc1ccccc12 (some centres undefined)
inactive: [1] > 100 µM | [2] > 100 µM | [3] > 100 µM | [4] > 100 µM | [5] > 100 µM | [6] > 100 µM | [16] > 100 µM | [11] > 100 µM | [12] > 100 µM | [13] > 100 µM | [14] > 100 µM | [15] > 100 µM

CCOC(=O)CCC(NC(=O)C(Cc1ccc([N+](=O)[O-])cc1)NC(=O)OC(C)(C)C)C(=O)NC(CCC(=O)OCC)C(=O)OCC (centres undefined) (Boc-[Phe(4-NO2)]-Glu(OEt)-Glu(OEt)-OEt; configuration not given here)
inactive: [2] 16.8 µM | [3] 15.5 µM | [4] 16.3 µM | [5] 18.5 µM | [6] > 10 µM | [18] 16.6 µM | [16] 11.7 µM | [8] 17.9 µM | [9] 2.87 µM | [10] 15.6 µM | [12] 17.4 µM | [13] > 10 µM | [14] 21.2 µM | [15] 38.5 µM
